From paper PMC10447463, “Data-mining unveils structure–property–activity correlation of viral infectivity enhancing self-assembling peptides” (Nature Communications, 2023)

Experiments:
[1] = Turbidity, derived count rate of scattered light; type: physicochemical; conditions: log10 of derived count rate of scattered light, Figure 7B
[2] = Zeta-potential measurement; type: physicochemical; conditions: for Zeta pot. / mV: 1 mg/mL in PBS pH 7.4 from 10 mg/mL DMSO stock, 1 d RT, 60 µL diluted in 600 µL 1 mM KCl, Zetasizer Nano ZS, Smoluchowski, mean of triplicate; for Zeta-Potential / mV: mean, Figure 7B
Outline: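 One-day room-temperature aggregation at 1 mg/mL in PBS (pH 7.4) preceded measurement; samples then went into 1 mM KCl. Triplicates per sample, two independent experiments averaged.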

[3] = type: physicochemical; conditions: for ThT Cat. / ThT-Fluorescence (categorical): ThT-active if fluorescence at least twice the control
Outline: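 Fibrils (1 mg/mL solution) were mixed with 50 µM ThT in PBS for 15 min at RT, and fluorescence was read at λex 440/λem 488 nm against a PBS blank, as a triplicate mean ± SD. Zeta potential came from electrophoretic mobility (Smoluchowski) after 1 d aggregation at 1 mg/mL in PBS pH 7.4, diluted into 1 mM KCl.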

[4] = test system: HIV-1 infection of TZM-bl cells; assay: HIV-1 infectivity enhancement assay, β-galactosidase luminescence; type: cell-based; conditions: for Log10 Infection Rel EF-C: log10 of infection relative to EF-C, Figure 7B; for Inf. rel. EF-C: n-fold infection vs virus only, relative to that of EF-C, 1.3 µM peptide

Substance	Log10 Count Rate [1]	Zeta pot. / mV [2]	Zeta-Potential / mV [2]	ThT Cat. / ThT-Fluorescence (categorical) [3]	Log10 Infection Rel EF-C [4]	Inf. rel. EF-C [4]	Zeta Pot. / mV [2]	Zeta category ( +1 = if > 4 mV;-1 = if < -4 mV; 0 = -4mV to 4 mV) [2]	Tht rel to blank (42.1851851851852) ([3]; ThT fluorescence relative to blank, blank = 42.1851851851852)	Tht category (> 1.5 to blank = +) ([3]; category 1/0)
GAITIG-NH2 [reference compound]	1.474	-5.4 mV	-5.36 mV	0 (ThT-inactive (N-Fold <2))	-1.35	0.04				
RCELARTLKR [reference compound]	1.893	-0.9 mV	-0.85 mV	0 (ThT-inactive (N-Fold <2))	-1.06	0.09				
VLYVGSKT [reference compound]	1.386	-9.1 mV	-9.07 mV	0 (ThT-inactive (N-Fold <2))	-1.24	0.06				
NSGAITIG-NH2 [reference compound]	1.294	-8.4 mV	-8.45 mV	0 (ThT-inactive (N-Fold <2))	-1.26	0.05				
GNNQQNY [reference compound]	1.572	-6.6 mV	-6.62 mV	0 (ThT-inactive (N-Fold <2))	-1.28	0.05				
RIRIQIC [PS07]							16 mV	1 (+1 = if > 4 mV)	1.32	0 (ThT-inactive (N-Fold <2))
GQTVTK [reference compound]	1.536	-5.3 mV	-5.26 mV	0 (ThT-inactive (N-Fold <2))	-1.25	0.06				
IIKIIK [reference compound]	0.6128	-7.0 mV	-7 mV	0 (ThT-inactive (N-Fold <2))	-1.1	0.08				
VQIVYK [reference compound]	1.414	-2.7 mV	-2.66 mV	0 (ThT-inactive (N-Fold <2))	-1.17	0.07				
DFNKF [reference compound]	3.027	-11.8 mV	-11.77 mV	0 (ThT-inactive (N-Fold <2))	-1.07	0.08				
